The text below walks through data of publication PMC9862023, “Isosarcophytoxide Derivatives with a 2,5-Dihydrofuran Moiety from the Soft Coral Sarcophyton cinereum” (Molecules, 2023).

What is called IC50 is the concentration needed to halve the response being measured.

Molecules are shown by their SMILES.

The test system of series [1] is human small cell lung cancer (H1688) cells. The series is described as follows: Cytotoxicity MTT assay, H1688 cell line. In kind it is cell-based. The conditions noted are these: 37 °C, 24 h, read-out: cytotoxicity toward H1688 cell line, IC50. The protocol:
The cytotoxicities of compounds were analyzed by using the human small cell lung cancer H1688 cell line and the 3-(4,5-dimethylthiazol-2-yl)-2,5-diphenyl tetrazolium bromide (MTT, Sigma-Aldrich, St. Louis, MO, USA) assay at 37 °C for 24 h.
(Tetrazolium assays rely on reduction of a dye to a coloured formazan, in cell work by metabolically active cells.)

Series [2] is described as follows: Cell viability of dendritic cells (CCK-8). In kind it is cell-based, murine. The following applies: mouse, dendritic cells (DCs), CCK-8, 37 °C, read-out: cytotoxicity against DCs, IC50. The protocol:
The DCs (1 × 10^6) were treated with tested compounds (100 μg/mL) and cultured at 37 °C for 24 h. Cytotoxicity was examined using a Cell Counting Kit-8 (CCK-8; Dojindo Molecular Technologies, Inc., Kumamoto, Japan) according to the manufacturer’s protocol. The absorbance was recorded on a microplate reader (Tecan Group Ltd., Männedorf, Switzerland) at a wavelength of 450 nm.

For series [3], the system named is TNF-α expression in LPS-stimulated murine dendritic cells (DCs). As to the kind of experiment: TNF-α expression by LPS-induced DCs (ELISA). The conditions noted are these: Mus musculus, Dendritic cell, 100 ng/mL LPS, 24 h, read-out: inhibition of TNF-α expression in LPS-stimulated DCs, IC50. It is filed as cell-based. The protocol: The TNF-α expressions of LPS-induced DCs were measured by enzyme-link immunosorbent assay (ELISA), in the same way as the previously reported method. The DCs were treated with 100 ng/mL lipopolysaccharide (LPS) and the isolated compounds for 24 h. The optical density of the production of TNF-α was measured at 450 nm by the ELISA reader.
For orientation: In an ELISA, binding on a coated surface is turned into a signal by an enzyme label.

`COC1OC2C=C(C)CCC=C(C)CCC3OC3(C)CCC2=C1C` (stereo not drawn) [compound 3, 16β-Methoxyisosarcophytoxide]: the half-maximal inhibitory concentration (IC50) in series [1] came to 27.5 ± 6.4 µM.

On to `COC1OC2C=C(C)CCC=C(C)CCC3OC3(C)CCC2=C1C` (stereo not drawn) [compound 4, 16α-Methoxyisosarcophytoxide], for which the concentration for half-maximal inhibition (IC50) in series [1] was 85.8 µM.

Turning to `O=c1c(O)c(-c2ccc(O)c(O)c2)oc2cc(O)cc(O)c12` [Quercetin], in series [2], the IC50 at 24 h is 78.8 ± 7.3 µM. The IC50 in series [3] came out at 23.1 ± 5.2 µM.

As to `C=C[C@@](C)(Cl)[C@@H](Cl)/C=C/C(=C/Cl)C(Cl)Cl` (relative stereo) [(3R*,4S*,5E,7Z)-7-dichlorothyl-3,4,8-trichloro-3-methylocta-1,5,7-triene], the half-maximal inhibitory concentration (IC50) in series [1] came to 4.2 ± 2.1 µM.
